This passage reports IC50 results from US20170022171A1, “2,5-DISUBSTITUTED CYCLOPENTANECARBOXYLIC ACIDS AND THEIR USE” (Bayer Pharma Aktiengesellschaft, priority 2014, published 2017).

T1 sequence (P39900 106-470): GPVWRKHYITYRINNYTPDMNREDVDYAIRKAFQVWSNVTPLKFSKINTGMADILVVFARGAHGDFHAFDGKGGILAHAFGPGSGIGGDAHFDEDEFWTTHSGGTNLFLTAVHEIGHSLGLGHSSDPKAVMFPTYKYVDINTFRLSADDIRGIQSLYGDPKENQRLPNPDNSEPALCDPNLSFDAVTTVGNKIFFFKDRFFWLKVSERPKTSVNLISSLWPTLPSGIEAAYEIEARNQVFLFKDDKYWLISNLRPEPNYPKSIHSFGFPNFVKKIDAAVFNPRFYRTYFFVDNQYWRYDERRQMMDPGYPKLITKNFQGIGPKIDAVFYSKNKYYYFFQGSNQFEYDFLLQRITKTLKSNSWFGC

The assay addresses T1, human macrophage elastase (HME/hMMP-12) (Homo sapiens, UniProt P39900).
T1 construct: 0.5 nM HME; purchased R&D Systems 917-MP
The assay can be described thus: In vitro HME inhibition test (standard or high-sensitivity). The following applies: in some cases mean values. In kind it is biochemical. The protocol: The potency of the compounds according to the invention with respect to HME (MMP-12) is determined in an in vitro inhibition test. The HME-mediated amidolytic cleavage of a suitable peptide substrate leads to an increase in fluorescent light therein. The signal intensity of the fluorescent light is directly proportional to the enzyme activity. The active concentration of a test compound at which half the enzyme is inhibited (50% signal intensity of the fluorescent light) is reported as the IC50 value.
In a 384 hole microtiter plate, in a total test volume of 41 the test buffer (0.1 M HEPES pH 7.4, 0.15 M NaCl, 0.03 M CaCl2, 0.004 mM ZnCl2, 0.02 M EDTA, 0.005% Brij®), the enzyme (0.5 nM HME; from R&D Systems, 917-MP, autocatalytic activation according to the manufacturer's instructions) and the intramolecularly quenched substrate [5 μM Mca-Pro-Leu-Gly-Leu-Glu-Glu-Ala-Dap(Dnp)-NH2; Bachem, M-2670] are incubated in the absence and presence of the test substance (as a solution in DMSO) at 37° C. for two hours. The fluorescence intensity of the test mixtures is measured (excitation […], emission 393 nm). The IC50 values are ascertained by plotting the fluorescent light intensity against the active ingredient concentration.
In this case, an enzyme concentration ten times lower is used (final concentration, for example, 0.05 nM) in order to achieve an elevated test sensitivity. The incubation period chosen for the test is correspondingly longer (for example 16 hours).
Molecule `Cc1ccc2nnn(C[C@@H]3CC[C@H](C(=O)c4ccc(OCc5ccc(F)cc5)cc4)[C@H]3C(=O)O)c(=O)c2c1` (racemic) [Example 94, (+/−)-(1RS,2RS,5SR)-2-{4-[(4-Fluorobenzyl)oxy]benzoyl}-5-[(6-methyl-4-oxo-1,2,3-benzotriazin-3(4H)-yl)methyl]cyclopentanecarboxylic acid] yielded an IC50 of 0.055 nM.
For `O=C(O)[C@H]1[C@H](Cn2nnc3ccc(C(F)(F)F)cc3c2=O)CC[C@@H]1C(=O)c1ccc(OCC2CCC2)cc1` (racemic) [Example 46, (+/−)-(1RS,2RS,5SR)-2-[4-(Cyclobutylmethoxy)benzoyl]-5-{[4-oxo-6-(trifluoromethyl)-1,2,3-benzotriazin-3(4H)-yl]methyl}cyclopentanecarboxylic acid] the value was 0.034 nM; for `CCCCCOc1ccc(C(=O)[C@@H]2CC[C@H](Cn3nnc4ccc(C)cc4c3=O)[C@H]2C(=O)O)cc1` (single isomer, unassigned) [Example 125, (−)-(1RS,2SR,5RS)-2-[(6-Methyl-4-oxo-1,2,3-benzotriazin-3(4H)-yl)methyl]-5-[4-(pentyloxy)benzoyl]cyclopentanecarboxylic acid], 6.7 nM.
With `O=C(O)[C@H]1[C@H](Cn2nnc3ccc(C(F)(F)F)cc3c2=O)CC[C@@H]1C(=O)c1ccc(OCCC2CCCCC2)cc1` (racemic) [Example 50, (+/−)-(1RS,2RS,5SR)-2-[4-(2-Cyclohexylethoxy)benzoyl]-5-{[4-oxo-6-(trifluoromethyl)-1,2,3-benzotriazin-3(4H)-yl]methyl}cyclopentanecarboxylic acid] the figure was 0.036 nM; with `O=C(O)[C@@H]1[C@@H](Cn2nnc3ccc(C(F)(F)F)cc3c2=O)CC[C@H]1C(=O)c1ccc(SCc2ccc(Cl)c(Cl)c2)cc1` (single isomer, unassigned) [Example 81, (−)-(1RS,2RS,5SR)-2-{4-[(3,4-Dichlorobenzyl)sulphanyl]benzoyl}-5-{[4-oxo-6-(trifluoromethyl)-1,2,3-benzotriazin-3(4H)-yl]methyl}cyclopentanecarboxylic acid], 25 nM.
For `Cc1ccc2nnn(C[C@H]3CC[C@@H](C(=O)c4ccc(OCc5cccc(C(F)(F)F)c5)cc4)[C@@H]3C(=O)O)c(=O)c2c1` (single isomer, unassigned) [Example 102, (−)-(1RS,2SR,5RS)-2-[(6-Methyl-4-oxo-1,2,3-benzotriazin-3(4H)-yl)methyl]-5-(4-{[3-(trifluoromethyl)benzyl]oxy}benzoyl)cyclopentanecarboxylic acid] the value was 8.7 nM; for `CCCOc1ccc(C(=O)[C@@H]2CC[C@H](Cn3nnc4ccc(C(F)(F)F)cc4c3=O)[C@H]2C(=O)O)cc1` (single isomer, unassigned) [Example 71, (−)-(1RS,2SR,5RS)-2-{[4-Oxo-6-(trifluoromethyl)-1,2,3-benzotriazin-3(4H)-yl]methyl}-5-(4-propoxybenzoyl)cyclopentanecarboxylic acid], 2.7 nM.
On to `O=C(O)[C@@H]1[C@@H](Cn2nnc3ccc(C(F)(F)F)cc3c2=O)CC[C@H]1C(=O)c1ccc(OCCc2ccccc2)cc1` (single isomer, unassigned) [Example 38, (−)-(1RS,2SR,5RS)-2-{[4-Oxo-6-(trifluoromethyl)-1,2,3-benzotriazin-3(4H)-yl]methyl}-5-[4-(2-phenylethoxy)benzoyl]cyclopentanecarboxylic acid], for which inhibition was half-maximal at 350 nM (IC50).
For `Cc1ccc2nnn(C[C@@H]3CC[C@H](C(=O)c4ccc(OCCc5ccccc5)cc4)[C@H]3C(=O)O)c(=O)c2c1` (racemic) [Example 112, (+/−)-(1RS,2SR,5RS)-2-[(6-Methyl-4-oxo-1,2,3-benzotriazin-3(4H)-yl)methyl]-5-[4-(2-phenylethoxy)benzoyl]cyclopentanecarboxylic acid] the value was 0.66 nM; for “(−)-(1RS,2RS,5SR)-2-{4-[Cyclohexyl)methyl)sulphanyl]benzoyl}-5-{[4-oxo-6-(trifluoromethyl)-1,2,3-benzotriazin-3(4H)-yl]methyl}cyclopentanecarboxylic acid [Example 87]”, 8.3 nM.
`CC(C)CCOc1ccc(C(=O)[C@@H]2CC[C@H](Cn3nnc4ccc(C(F)(F)F)cc4c3=O)[C@H]2C(=O)O)cc1` (single isomer, unassigned) [Example 61, (+)-(1RS,2RS,5SR)-2-[4-(3-Methylbutoxy)benzoyl]-5-{[4-oxo-6-(trifluoromethyl)-1,2,3-benzotriazin-3(4H)-yl]methyl}cyclopentanecarboxylic acid] registered a 50% inhibitory concentration (IC50) of 0.032 nM. Against the preceding molecule, the IC50 is about 260-fold lower.
With `O=C(O)[C@H]1[C@H](Cn2nnc3ccc(C(F)(F)F)cc3c2=O)CC[C@@H]1C(=O)c1ccc(SCc2ccccc2)cc1` (racemic) [Example 73, (+/−)-(1RS,2RS,5SR)-2-[4-(Benzylsulphanyl)benzoyl]-5-{[4-oxo-6-(trifluoromethyl)-1,2,3-benzotriazin-3(4H)-yl]methyl}cyclopentanecarboxylic acid] the figure was 0.17 nM; with `O=C(O)[C@H]1[C@H](Cn2nnc3ccc(C(F)(F)F)cc3c2=O)CC[C@@H]1C(=O)c1ccc(SCCc2ccccc2)cc1` (racemic) [Example 82, (+/−)-(1RS,2SR,5RS)-2-{[4-Oxo-6-(trifluoromethyl)-1,2,3-benzotriazin-3(4H)-yl]methyl}-5-{4-[(2-phenylethyl)sulphanyl]benzoyl}cyclopentanecarboxylic acid], 0.12 nM.
With `O=C(O)[C@@H]1[C@@H](Cn2nnc3ccc(C(F)(F)F)cc3c2=O)CC[C@H]1C(=O)c1ccc(OCC2CCC2)cc1` (single isomer, unassigned) [Example 47, (+)-(1RS,2RS,5SR)-2-[4-(Cyclobutylmethoxy)benzoyl]-5-{[4-oxo-6-(trifluoromethyl)-1,2,3-benzotriazin-3(4H)-yl]methyl}cyclopentanecarboxylic acid] the figure was 0.025 nM.
For `CC(C)COc1ccc(C(=O)[C@H]2CC[C@@H](Cn3nnc4ccc(C(F)(F)F)cc4c3=O)[C@@H]2C(=O)O)cc1` (racemic) [Example 72, (+/−)-(1RS,2RS,5SR)-2-(4-Isobutoxybenzoyl)-5-{[4-oxo-6-(trifluoromethyl)-1,2,3-benzotriazin-3(4H)-yl]methyl}cyclopentanecarboxylic acid] the value was 0.13 nM; for `O=C(O)[C@@H]1[C@@H](Cn2nnc3ccc(C(F)(F)F)cc3c2=O)CC[C@H]1C(=O)c1ccc(OCCC2CCCC2)cc1` (single isomer, unassigned) [Example 54, (−)-(1RS,2RS,5SR)-2-[4-(2-Cyclopentylethoxy)benzoyl]-5-{[4-oxo-6-(trifluoromethyl)-1,2,3-benzotriazin-3(4H)-yl]methyl}cyclopentanecarboxylic acid], 22 nM.
Molecule `CCCCCOc1ccc(C(=O)[C@@H]2CC[C@H](Cn3nnc4ccc(C(F)(F)F)cc4c3=O)[C@H]2C(=O)O)cc1` (single isomer, unassigned) [Example 64, (+)-(1RS,2SR,5RS)-2-{[4-Oxo-6-(trifluoromethyl)-1,2,3-benzotriazin-3(4H)-yl]methyl}-5-[4-(pentyloxy)benzoyl]cyclopentanecarboxylic acid] displayed an IC50 of 0.068 nM.

As usually defined, the IC50 is the concentration needed to halve the response being measured.
